Peptide text beside a SMILES is read from it.
System: IgG expressing CHO cell line (CHO-2: ATCC CRL 11397, producing IgG4)
Experiment: Growth and production curves of IgG expressing CHO cells in suspension culture in supplemented chemically defined medium
Format: cell-based, Chinese hamster
Details: for Cell growth (area under curve) after 14 days: dimensionless AUC
Method: The cell culture assay was carried out in commercially available IS CHO-CD medium (Irvine Scientific, Cat. No. 91119). […] Penicillin and streptomycin were added to prevent any bacterial growth during the growth assay. The media was supplemented with β-Alanine, γ-glutamyl cysteine, glycyl-glycine, L-homoserine or N-acetyl methionine, all purchased from Sigma Aldrich, Germany, in varying concentrations (1×10^-5 to 1×10^-1% (w/v), see Table 2). The supplemented medium was mixed with a vortex mixture, filtered using a 0.22 μm filter and subsequently used in a growth assay. An IgG expressing CHO cell line was used (CHO-2: ATCC CRL 11397, producing IgG4). The cell lines were grown in the adherent conditions for a few passages and once confluent, they were transferred to animal-free conditions in the supplemented media described in Example 5. […] Chemically defined media with and without added amino acid derivatives were tested. No fresh media was added during the growth assay. Cells were counted using the […] counter (Innovatis, Germany). The cell counts were used to calculate the area under the growth curve and represented as dimensionless area under curve (AUC) values as described in detail in Ling, C. X, Huang, J. and Zhang, H. (2003), International joint conferences on artificial intelligence, pp. 329-341. The supernatant samples were taken every alternate days for the IgG production measurements. IgG production was measured using sandwich ELISA method. […] The cells were visually inspected using a phase contrast microscope (Zeiss Axiovert 25, 400× magnification). […] Only single cells were observed and no aggregation of cells was seen. The cell shape was also positively affected. […] This was in contrast with the observation that a lot of cell aggregates were present in CHO cell cultures grown in chemically defined medium without amino acid derivatives.

[1] = added at 1 × 10^−1 % w/v in IS CHO-CD medium
[2] = added at 1 × 10^−1 % w/v in IS CHO-CD medium, ratio of cumulative IgG (mg/ml) and AUC at day 11
[3] = added at 1 × 10^−2 % w/v in IS CHO-CD medium
[4] = added at 1 × 10^−3 % w/v in IS CHO-CD medium
[5] = added at 1 × 10^−4 % w/v in IS CHO-CD medium
[6] = added at 1 × 10^−5 % w/v in IS CHO-CD medium

NCC(=O)NCC(=O)O [Glycyl-glycine] (H-Gly-Gly-OH)
Cell growth (area under curve) after 14 days [1]: 50.6 | Specific IgG production after 11 days [2]: 86.6 | Specific IgG production after 11 days [3]: 95.8 | Cell growth (area under curve) after 14 days [3]: 48.2 | Specific IgG production after 11 days [4]: 104.2 | Cell growth (area under curve) after 14 days [4]: 49.6 | Specific IgG production after 11 days [5]: 113.5 | Cell growth (area under curve) after 14 days [5]: 47.7 | Specific IgG production after 11 days [6]: 102.0 | Cell growth (area under curve) after 14 days [6]: 51.0

N[C@@H](CCO)C(=O)O [L-homoserine]
Cell growth (area under curve) after 14 days [1]: 45.7 | Specific IgG production after 11 days [2]: 122.0 | Specific IgG production after 11 days [3]: 72.0 | Cell growth (area under curve) after 14 days [3]: 59.1 | Specific IgG production after 11 days [4]: 96.8 | Cell growth (area under curve) after 14 days [4]: 39.4

CSCC[C@H](NC(C)=O)C(=O)O [N-acetyl methionine]
Cell growth (area under curve) after 14 days [1]: 48.6 | Specific IgG production after 11 days [2]: 91.9 | Specific IgG production after 11 days [3]: 90.4 | Cell growth (area under curve) after 14 days [3]: 47.9 | Specific IgG production after 11 days [4]: 94.4 | Cell growth (area under curve) after 14 days [4]: 46.0 | Specific IgG production after 11 days [5]: 90.3 | Cell growth (area under curve) after 14 days [5]: 38.6 | Specific IgG production after 11 days [6]: 81.3 | Cell growth (area under curve) after 14 days [6]: 41.2

N[C@@H](CCC(=O)N[C@@H](CS)C(=O)O)C(=O)O [γ-glutamyl cysteine]
Cell growth (area under curve) after 14 days [1]: 46.1 | Specific IgG production after 11 days [2]: 78.2 | Specific IgG production after 11 days [3]: 105.9 | Cell growth (area under curve) after 14 days [3]: 42.8 | Specific IgG production after 11 days [4]: 68.33 | Cell growth (area under curve) after 14 days [4]: 58.0 | Specific IgG production after 11 days [5]: 77.2 | Cell growth (area under curve) after 14 days [5]: 47.6 | Specific IgG production after 11 days [6]: 72.5 | Cell growth (area under curve) after 14 days [6]: 58.9

NCCC(=O)O [β-alanine]
Cell growth (area under curve) after 14 days [1]: 62.5 | Specific IgG production after 11 days [2]: 92.8 | Specific IgG production after 11 days [3]: 108.6 | Cell growth (area under curve) after 14 days [3]: 51.3 | Specific IgG production after 11 days [4]: 97.1 | Cell growth (area under curve) after 14 days [4]: 50.6
